Experimental findings from patent publication US6878751B1, “Administration of resveratrol to treat inflammatory respiratory disorders” (Imperial College of Science Technology and Medicine, priority 2000, dated 2005) are described below.

One test concerns COPD patients. Kind of test: Pulmonary resveratrol clinical evaluation in COPD (Example 9). It is filed as in vivo, human. As to conditions: inhaled, 4, 8 or 20 mg/day. The procedure: Pulmonary administration of resveratrol for COPD may be evaluated by the method preceding in Example 8, using the inhaled doses specified in Example 4. Specifically the subgroups receive either 0 (placebo), 4, 8, or 20 mg/day resveratrol in inhaled doses of 0, 1, 2, or 5 mg administered 4 times daily for th duration of the study.

In test [1] the test system is CRE dependent transcription. Kind of test: CRE luciferase reporter in stably transfected A549 cells. It is filed as cell-based, human. The protocol: The expression of inflammatory genes was then evaluated in cells transformed with luciferase reporter genes containing sites for transcription factors (Tf, Tfs). The A549 cells were stably transfected by routine methods with luciferase reporters containing the transcription factors NF-κB, TRE (AP-1, TPA responsive element) and CRE (cAMP responsive element). Luciferase activity of cell lysates resuspended in […] cell lysis buffer mixed (40 mml resuspended lysate: 40 mml assay reagent) was measured using the Luciferase Assay System (Promega), with emitted light measured by a Turner DesignsTD-20/20 luminometer (Steptech Instruments Ltd., Stevenage, U.K.)

In test [2] the test system is GM-CSF release, A549 cells. Kind of test: GM-CSF release (sandwich assay) in IL-1β stimulated A549 cells. It counts as cell-based. As to conditions: Homo sapiens, 1 ng/ml IL-1β, read-out: EC50 for inhibition of GM-CSF release. The procedure:
The human airway epithelial cell line A549 may be employed to study resveratrol inhibition of the release of IL-8 (interleukin 8) and GM-CSF (granulocyte macrophage-colony stimulating factor) by a 1 ng/ml stimulation with IL-1β (interleukin 1β). A549 cells, BEAS-2B cells and 16HBE-16o^− cells were stimulated with 1 ng/ml levels of IL-1β in the presence of resveratrol.
Cells, including the A549 cells, were cultured in Dulbecco's modified Eagle's medium (DMEM) 10% (v/v) fetal calf serum (FCS), 100 μg/ml penicillin and 100 μg/ml streptomycin. IL-8 release was measured by commercially available ELISA kit (R&D Systems).
GM-CSF release was measured in culture media by sandwich assay employing rat monoclonal capture antibody (Ab, mAb) against GM-CSF and a biotinylated rat anti-human GM-CSF mAb. The rat capture mAb against GM-CSF, diluted 1:500 in 0.1 M NaHCO3, was coated overnight at 4° C. onto 96 well plates. After washing, with wash buffer (NaCl: 145 mM, KCl: 4 mM, NaH2PO4: 10 mM, Tween-20: 0.05% (v/v), pH: 7.4) the plates were blocked by application of 10% (v/v) FCS at room temperature for 2 hours. After washing, samples and standards were added to the well plates and incubated at 4° C. overnight. […]

The next test concerns iNOS. Kind of test: iNOS activity by nitrite and nitrite/nitrate accumulation in cytomix-stimulated human primary epithelial cells. It is filed as cell-based. As to conditions: for EC50: Homo sapiens, Epithelial cell, 24 h. The protocol: The inducible form of the enzyme NO synthase, iNOS(NOS2), which is known to be expressed during inflammation, is thought to be responsible for increased NO levels of asthmatic patients. Agents known to induce iNOS in human primary epithelial cells, such as interleukin-1β, tumor necrosis factor-α, and interferon-γ (cytomix) are useful in assaying resveratrol for inhibition of iNOS expression and activity, and comparing its effect to steroids.
Human primary epithelial cells are cultured from normal donor tissue. Explant cultures of tissue obtained from normal human lung transplant donors provided human primary epithelial (HPE) cells. The HPE cells were cultured in Ham's F12 nutrient medium containing 5% (v/v) fetal calf serum (FCS), 1 μM hydrocortisone, 5 ng/ml EGF (epithelial growth factor), 10 μg/ml insulin, 10 nM retinoic acid, 0.5 μg/ml transferrin, 2 μg/ml triiodothyronine, 1.5 μg/ml NaHCO3, 100 μg/ml penicillin, 100 μg/ml streptomycin and 0.25 μg/m amphotericin B; the cells were incubated at 37° C. in a humidified atmosphere containing 95% (v/v) air, 5% (v/v) CO2. The HPE cells were cultured for the last 24 hours prior to the experimental treatments under the same conditions except that additive free Ham's F12 media was substituted for the supplemented Ham's F12 media described above.
These cells were stimulated for 24 hours with 50 ng/ml cytomix (interferon-γ) in the absence or presence of resveratrol, or one of glucocorticoids, dexamethasone and budenoside. Activity of iNOS is measured by determination of […] and nitrite/nitrate accumulation. Nitrite was measured by a modification of the method of Misko, et al. (1993) Anal. Biochem. 214:11-16. […] The reaction was stopped by addition of 10 μl of 1.4M NaOH, and fluorescense was measured with a Biolite F1 fluorimeter (Labtech, Uckfield, U.K.) set at: 460 nm emission wavelength, 360 nm excitation wavelength, 40-50% sensitivity. Sample nitrite concentration was calculated by reference to a standard curve of known nitrite concentrations, permitting assay sensitivity to 0.1 μM.

SMILES strings stand for the structures. Read-outs that look alike come from different tables or passages of the source.

With `Oc1ccc(/C=C/c2cc(O)cc(O)c2)cc1` [Resveratrol, 3,5,4′-trihydroxystilbene], the “efficacy in treating COPD” value in the test on COPD patients is reported as “effective for treating COPD”. In test [1], the “extent of inhibition of CRE dependent transcription” value is listed as 91%. Besides, the EC50 in test [1] (Homo sapiens, read-out: EC50 for inhibition of CRE dependent transcription) was 30 ± 17 µM; in test [2], 22 ± 8 µM; with iNOS (read-out: EC50 for nitrite accumulation), 3.6 ± 2.9 µM; with iNOS (read-out: EC50 for nitrite/nitrate accumulation), 0.88 ± 0.47 µM. Besides, the “inhibition of nitrite formation / accumulation in the cell culture media” value in the test with iNOS (HPE cells, cytomix 24 hours, steroids at 10^−9 M to 10^−5 M) is given as “only agent able to inhibit nitrite formation”.
